Read-outs that look alike come from different tables or passages of the source.
Assays:
Full length Human HDAC6 = molecular target: T1, Full length Human HDAC6 (Homo sapiens, UniProt Q9UBN7); conditions: for Selectivity (6 v 8) (fold): ratio of HDAC8 IC50/HDAC6 IC50
T1 sequence (Q9UBN7 1-1215): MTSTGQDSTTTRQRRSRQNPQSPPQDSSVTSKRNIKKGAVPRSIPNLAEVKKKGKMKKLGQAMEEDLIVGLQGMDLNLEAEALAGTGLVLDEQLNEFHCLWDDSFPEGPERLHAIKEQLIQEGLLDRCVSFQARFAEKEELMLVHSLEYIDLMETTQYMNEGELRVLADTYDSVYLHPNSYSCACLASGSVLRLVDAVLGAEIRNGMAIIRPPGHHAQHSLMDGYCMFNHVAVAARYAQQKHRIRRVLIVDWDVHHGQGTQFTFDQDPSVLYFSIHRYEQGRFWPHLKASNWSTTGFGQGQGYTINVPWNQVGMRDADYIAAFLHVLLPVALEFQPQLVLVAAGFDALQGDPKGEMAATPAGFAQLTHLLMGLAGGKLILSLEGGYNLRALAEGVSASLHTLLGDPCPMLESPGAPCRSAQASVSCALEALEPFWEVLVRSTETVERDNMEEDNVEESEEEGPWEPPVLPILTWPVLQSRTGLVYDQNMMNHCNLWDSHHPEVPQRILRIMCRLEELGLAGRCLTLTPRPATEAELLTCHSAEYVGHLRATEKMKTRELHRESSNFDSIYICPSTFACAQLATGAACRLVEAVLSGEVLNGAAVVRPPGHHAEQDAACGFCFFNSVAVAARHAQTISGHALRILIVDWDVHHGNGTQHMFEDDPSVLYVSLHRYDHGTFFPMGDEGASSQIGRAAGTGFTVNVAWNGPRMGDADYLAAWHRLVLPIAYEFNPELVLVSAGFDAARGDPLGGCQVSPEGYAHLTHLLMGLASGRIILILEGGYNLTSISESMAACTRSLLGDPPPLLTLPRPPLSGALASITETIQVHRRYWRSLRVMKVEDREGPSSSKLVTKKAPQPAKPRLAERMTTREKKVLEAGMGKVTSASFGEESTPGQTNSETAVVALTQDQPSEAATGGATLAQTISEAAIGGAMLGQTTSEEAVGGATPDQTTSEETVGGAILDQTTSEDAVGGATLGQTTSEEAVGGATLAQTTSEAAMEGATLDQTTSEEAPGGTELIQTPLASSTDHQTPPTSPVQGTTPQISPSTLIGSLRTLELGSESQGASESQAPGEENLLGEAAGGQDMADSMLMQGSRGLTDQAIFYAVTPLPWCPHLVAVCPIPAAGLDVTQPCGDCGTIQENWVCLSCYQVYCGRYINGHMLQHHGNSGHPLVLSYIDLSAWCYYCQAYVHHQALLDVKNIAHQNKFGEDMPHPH

[1] = test system: histone H3 acetylation (acH3K9) in undifferentiated SH-SY5Y cells; test: Histone H3 acetylation in cells (Western immunoblot); assay type: cell-based; conditions: Homo sapiens, 4 hours, acetyl histone H3K9/histone H3 ratio
Protocol: (§1) Compound EC50 Determination for Tubulin- and Histone H3 Acetylation in Cells
(§2) Estimation of the EC50 for exemplary compounds to alter target protein acetylation in undifferentiated SH-SY5Y cells was performed using standard Western immunoblotting methods. […] SH-SY5Y cells were grown to 90% confluency on sterile cell growth plates. 10 mM compound stocks prepared in DMSO and two-fold serial dilutions were prepared from the stock and applied to cells to achieve a 12-point concentration range in cell media from an upper limit of 10 μM to a lower limit of DMSO [zero compound].
(§3) Cells were incubated under normal growth conditions (37° C., 5% CO2) in the presence of compound for 4 hours, then media was aspirated and cells were rinsed two times with 1×DPBS with calcium and magnesium warmed to 37° C. Cells were frozen directly on the plates on a bed of dry ice for 5 min, then stored at −80° C. until protein extraction.
(§4) Protein extraction was performed in RIPA buffer (50 mM Tris-HCL pH 8.0, 150 mM NaCl, 0.5% sodium deoxycholate, 0.1% sodium dodecyl sulfate, 1% NP-40) supplemented with Pierce protease inhibitor mini tables (Thermofisher cat #A32953) exactly as described by the manufacturer. After thawing the plate on a bed of wet ice for 10 minutes, lysis buffer was added to each well (e.g. 100 μL per well of a 24-well plate) and cells scraped from the bottom of each well. Lysates were then sonicated over ice (40% power, 30 pulses of 1 second on, 2 seconds off), centrifuged at 16,000 g for 10 min at 4° C., and the clarified supernatant saved. Protein concentration was determined by BCA assay and at least 3 μg prepared per lane by combining lysate supernatant aliquot with 1/3 total volume of 3× gel loading buffer containing DTT (NEB Cat. #B7703S), heating for 5 minutes at 95° C., briefly centrifuging and then loading on an SDS-PAGE gel.
(§5) Proteins were resolved on a 4-20% Tris-Glycine gel and transferred to PVDF membrane using an iBlot2 dry transfer system. The membrane was then blocked for at least 30 minutes at room temperature in TBST containing 5% milk or 5% bovine serum albumin, then incubated overnight at 4° C. with a single primary antibody from the following table:
(§6) Following primary antibody incubation, membranes were washed, incubated in secondary antibody, washed and incubated in ECL prime western blotting detection reagent (Amersham #RPN223) with membrane exposure and ECL signal capture in a LI-COR Odyssey Imaging system. […] Subsequent densitometry of immunoreactive bands was performed using the ImageStudio software and Microsoft Excel resulting in the following ratios: acetylTubulin/Tubulin and acetyl histone H3K9/histone H3. Raw ratios were uploaded to GraphPad Prism v7.0 with EC50 values modeled using the variable slope equation for log-transformed data [log(agonist) vs response in Prism].

Full length Human HDAC8 = molecular target: T2, Full length Human HDAC8 (Homo sapiens, UniProt Q9BY41)
T2 sequence (Q9BY41 1-377): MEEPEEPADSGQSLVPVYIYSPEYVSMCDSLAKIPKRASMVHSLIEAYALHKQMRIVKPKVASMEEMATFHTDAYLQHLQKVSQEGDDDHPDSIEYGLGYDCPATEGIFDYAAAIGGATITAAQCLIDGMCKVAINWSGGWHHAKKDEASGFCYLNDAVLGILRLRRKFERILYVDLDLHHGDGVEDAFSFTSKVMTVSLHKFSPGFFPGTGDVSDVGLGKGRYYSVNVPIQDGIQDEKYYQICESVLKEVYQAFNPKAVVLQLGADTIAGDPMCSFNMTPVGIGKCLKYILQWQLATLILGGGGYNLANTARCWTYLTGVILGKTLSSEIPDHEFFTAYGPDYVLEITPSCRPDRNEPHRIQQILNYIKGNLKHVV

[2] = test system: tubulin acetylation (acTubK40) in undifferentiated SH-SY5Y cells; test: Tubulin acetylation in cells (Western immunoblot); assay type: cell-based; conditions: Homo sapiens, 4 hours, acetylTubulin/Tubulin ratio
Protocol: as §1, §2, §3, §4, §5, §6

[3] = Metabolic stability in liver microsomes: Mouse BL6; assay type: in vitro ADME; conditions: 1 μM compound, 0.3 mg/mL protein, NADPH, 37° C., read-out: Mouse BL6 Liver Microsome Stability Half-life
Full length Human HDAC1 = Full length Human HDAC1 (Homo sapiens, UniProt Q13547)
Full length Human HDAC1, sequence (Q13547 whole entry): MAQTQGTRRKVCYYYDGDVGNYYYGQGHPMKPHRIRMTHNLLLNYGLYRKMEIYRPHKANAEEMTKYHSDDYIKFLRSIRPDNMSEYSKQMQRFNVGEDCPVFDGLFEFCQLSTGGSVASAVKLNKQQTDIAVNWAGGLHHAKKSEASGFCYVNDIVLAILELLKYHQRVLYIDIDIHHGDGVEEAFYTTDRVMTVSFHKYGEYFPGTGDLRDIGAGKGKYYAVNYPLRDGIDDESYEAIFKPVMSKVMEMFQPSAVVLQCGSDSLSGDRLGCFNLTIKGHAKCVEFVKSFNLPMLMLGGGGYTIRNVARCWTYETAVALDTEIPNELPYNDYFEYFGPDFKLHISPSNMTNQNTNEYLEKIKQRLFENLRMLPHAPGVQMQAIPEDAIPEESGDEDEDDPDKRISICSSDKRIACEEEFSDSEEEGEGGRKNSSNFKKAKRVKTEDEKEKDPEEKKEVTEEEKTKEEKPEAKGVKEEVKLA

[4] = molecular target: Human HDAC9 a.a. 604-1066 (Homo sapiens, UniProt Q9UKV0)
Human HDAC9 a.a. 604-1066, sequence (Q9UKV0 604-1066 isoform Q9UKV0-5): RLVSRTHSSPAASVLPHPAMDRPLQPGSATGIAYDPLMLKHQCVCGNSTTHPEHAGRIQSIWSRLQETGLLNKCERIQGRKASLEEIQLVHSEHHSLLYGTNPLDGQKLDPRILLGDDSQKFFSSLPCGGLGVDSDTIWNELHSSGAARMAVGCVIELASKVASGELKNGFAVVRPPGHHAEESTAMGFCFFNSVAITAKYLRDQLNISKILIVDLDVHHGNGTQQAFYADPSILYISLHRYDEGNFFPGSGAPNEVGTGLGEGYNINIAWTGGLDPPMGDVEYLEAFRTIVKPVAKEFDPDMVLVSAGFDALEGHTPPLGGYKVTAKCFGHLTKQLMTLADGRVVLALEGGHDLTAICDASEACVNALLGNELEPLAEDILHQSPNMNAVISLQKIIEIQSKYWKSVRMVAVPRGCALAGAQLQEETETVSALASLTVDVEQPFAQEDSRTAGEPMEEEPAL

Human HDAC7 aa 518-end = molecular target: T3, Human HDAC7 aa 518-end (Homo sapiens, UniProt Q8WUI4)
T3 sequence (Q8WUI4 518-952 limits assumed): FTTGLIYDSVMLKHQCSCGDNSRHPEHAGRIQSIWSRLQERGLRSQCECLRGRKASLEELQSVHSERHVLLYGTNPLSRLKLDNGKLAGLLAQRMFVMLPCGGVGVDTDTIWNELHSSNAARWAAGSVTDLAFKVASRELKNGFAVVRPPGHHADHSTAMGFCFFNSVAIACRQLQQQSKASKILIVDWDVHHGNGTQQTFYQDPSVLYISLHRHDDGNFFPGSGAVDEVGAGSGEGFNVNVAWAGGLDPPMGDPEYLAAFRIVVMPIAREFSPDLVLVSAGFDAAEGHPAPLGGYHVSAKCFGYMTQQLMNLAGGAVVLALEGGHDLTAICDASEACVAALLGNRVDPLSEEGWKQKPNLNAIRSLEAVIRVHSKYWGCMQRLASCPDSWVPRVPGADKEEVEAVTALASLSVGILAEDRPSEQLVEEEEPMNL

[5] = In vivo assessment of brain penetration in mice (IV 1 mg/kg, plasma and brain levels); conditions: mouse, BL/6 mice; for Kp at 15 min / Kp at 60 min: brain and plasma, brain:plasma; for Kp at 15 min: read-out: Mouse B:P at 15 min; for Kp at 60 min: read-out: Mouse B:P at 60 min
Full length Human HDAC10 = molecular target: T4, Full length Human HDAC10 (Homo sapiens, UniProt Q969S8)
T4 sequence (Q969S8 1-669): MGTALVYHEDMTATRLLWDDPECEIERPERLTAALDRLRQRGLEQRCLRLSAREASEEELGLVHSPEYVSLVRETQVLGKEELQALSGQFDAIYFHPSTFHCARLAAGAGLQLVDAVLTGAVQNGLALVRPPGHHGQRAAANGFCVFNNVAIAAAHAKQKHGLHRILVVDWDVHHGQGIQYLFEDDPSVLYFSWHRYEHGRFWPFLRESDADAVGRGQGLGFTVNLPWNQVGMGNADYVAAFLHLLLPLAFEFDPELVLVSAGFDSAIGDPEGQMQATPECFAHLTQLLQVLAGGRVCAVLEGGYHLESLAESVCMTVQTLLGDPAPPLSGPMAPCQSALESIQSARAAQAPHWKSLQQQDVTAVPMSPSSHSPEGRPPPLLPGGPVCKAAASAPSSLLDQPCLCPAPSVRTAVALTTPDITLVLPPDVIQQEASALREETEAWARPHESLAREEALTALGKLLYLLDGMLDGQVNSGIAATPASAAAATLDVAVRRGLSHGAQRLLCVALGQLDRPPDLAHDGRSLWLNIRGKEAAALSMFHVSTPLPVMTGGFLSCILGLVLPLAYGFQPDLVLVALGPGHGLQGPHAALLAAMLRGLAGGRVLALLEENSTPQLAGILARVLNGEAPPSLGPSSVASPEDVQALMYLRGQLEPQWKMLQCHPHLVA

[6] = brain, read-out: Mouse Brain Conc (μM) at 15 min
[7] = brain, read-out: Mouse Brain Conc (μM) at 60 min
[8] = plasma, read-out: Mouse Plasma Conc (μM) at 15 min
[9] = plasma, read-out: Mouse Plasma Conc (μM) at 60 min
[10] = read-out: In vitro enzymatic IC50, HDAC Paralog 6, Table 2
[11] = read-out: In vitro enzymatic IC50, HDAC Paralog 8, Table 2

SMILES	IC50 (Full length Human HDAC6) [nM]	IC50 (Full length Human HDAC8) [nM]	IC50 (Human HDAC7 aa 518-end) [nM]	Selectivity (6 v 8) (fold) (Full length Human HDAC6; Table 1, number)	Selectivity (6 v 8) (fold) (Full length Human HDAC6; Table 1, range class)	also measured
O=C(NO)c1ccc(CN2C3CCCC2COC3)c(F)c1 [compound 52]	1 to 100	100 to 1000	–	35.5	III (III: >10-100)	half-life at 1 μM [3]: 4.83 h
O=C(NO)c1ccc2c(c1)C[C@@H]1CCCN1C2 (single isomer, unassigned) [compound 121]	–	–	–	80.9	III (III: >10-100)	concentration at 15 min [5, 6]: 0.19 µM; concentration at 60 min [5, 7]: 0.06 µM; concentration at 15 min [5, 8]: 0.96 µM; concentration at 60 min [5, 9]: 0.01 µM; Kp at 15 min [5]: 0.19; Kp at 60 min [5]: 5.89
O=C(NO)c1cc(F)c2c(c1)CC1CCCN1C2 (single isomer, unassigned) [compound 120]	1 to 100	1000 to 10000	1000 to 10000	–	–	IC50 (Full length Human HDAC6; [10]): 1 to 100 nM; IC50 (Full length Human HDAC8; [11]): 1000 to 10000 nM; IC50 (Full length Human HDAC10): > 100000 nM

More lines, main results first:

IC50 (Full length Human HDAC6) [nM]	IC50 (Full length Human HDAC8) [nM]	IC50 (Human HDAC7 aa 518-end) [nM]	SMILES	Selectivity (6 v 8) (fold) (Full length Human HDAC6; Table 1, number)	Selectivity (6 v 8) (fold) (Full length Human HDAC6; Table 1, range class)	also measured
1 to 100	100 to 1000	–	Cn1c2c(c3ccccc31)CCN(Cc1ccc(C(=O)NO)cc1F)C2 [compound 45]	–	–	EC50 [1]: > 10000 nM; EC50 [2]: 1700 nM
1 to 100	1000 to 10000	100 to 1000	C[C@@H]1C[C@H]2c3c(F)cc(C(=O)NO)cc3CCN2C1 (single isomer, unassigned) [compound 152]	–	–	IC50 (Full length Human HDAC1): 10000 to 100000 nM; IC50 [4]: 100 to 1000 nM
1 to 100	100 to 1000	–	O=C(NO)c1cc(F)c2c(c1)CN(CC13C4C5C6C4C1C6C53)CC2 (stereo not drawn) [compound 116, 2-(cuban-1-ylmethyl)-5-fluoro-N-hydroxy-1,2,3,4-tetrahydroisoquinoline-7-carboxamide]	11	III (III: >10-100)	concentration at 15 min [5, 6]: 0.39 µM; concentration at 60 min [5, 7]: 0 µM; concentration at 15 min [5, 8]: 0.25 µM; concentration at 60 min [5, 9]: 0.02 µM; Kp at 15 min [5]: 1.57; Kp at 60 min [5]: 0
1 to 100	1000 to 10000	1000 to 10000	O=C(NO)c1cc(F)c2c(c1)CN1CCC[C@@H]1C2 (single isomer, unassigned) [compound 124]	–	–	IC50 (Full length Human HDAC1): > 100000 nM; IC50 [4]: > 100000 nM
1 to 100	1000 to 10000	1000 to 10000	O=C(NO)c1cc(F)c(CN2CCC3(CCCCC3)C2)cc1F [compound 67]	20	III (III: >10-100)	IC50 (Full length Human HDAC6; [10]): 1 to 100 nM; IC50 (Full length Human HDAC8; [11]): 1000 to 10000 nM; IC50 (Full length Human HDAC10): 10000 to 100000 nM

Source: US12528767B2, “HDAC6 inhibitors and uses thereof” (Eikonizo Therapeutics, Inc., priority 2019, dated 2026)
